The target in experiment [1] is human GLP-1 receptor (Homo sapiens, UniProt P43220). The experiment can be described thus: cell-based. As to conditions: hGLP-1R.
In experiment [2] the target is T1, mouse GIP receptor (Mus musculus, UniProt Q0P543).
T1 sequence (Q0P543 19-460): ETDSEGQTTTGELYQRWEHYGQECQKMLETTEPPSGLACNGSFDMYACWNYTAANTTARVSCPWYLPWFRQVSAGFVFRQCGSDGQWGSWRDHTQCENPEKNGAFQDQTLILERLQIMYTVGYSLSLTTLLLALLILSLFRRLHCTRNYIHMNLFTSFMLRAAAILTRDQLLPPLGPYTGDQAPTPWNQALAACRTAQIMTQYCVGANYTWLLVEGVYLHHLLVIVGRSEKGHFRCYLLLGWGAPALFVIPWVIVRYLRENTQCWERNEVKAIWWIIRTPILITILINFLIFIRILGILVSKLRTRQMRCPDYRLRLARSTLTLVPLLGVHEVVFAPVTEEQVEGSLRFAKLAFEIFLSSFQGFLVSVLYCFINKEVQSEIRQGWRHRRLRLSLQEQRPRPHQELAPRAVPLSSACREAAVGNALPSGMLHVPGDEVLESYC
Description: cell-based.

Experiment [3] deals with human glucagon receptor (Homo sapiens, UniProt P47871). Description: cell-based.
human glucagon receptor, sequence (P47871 26-477): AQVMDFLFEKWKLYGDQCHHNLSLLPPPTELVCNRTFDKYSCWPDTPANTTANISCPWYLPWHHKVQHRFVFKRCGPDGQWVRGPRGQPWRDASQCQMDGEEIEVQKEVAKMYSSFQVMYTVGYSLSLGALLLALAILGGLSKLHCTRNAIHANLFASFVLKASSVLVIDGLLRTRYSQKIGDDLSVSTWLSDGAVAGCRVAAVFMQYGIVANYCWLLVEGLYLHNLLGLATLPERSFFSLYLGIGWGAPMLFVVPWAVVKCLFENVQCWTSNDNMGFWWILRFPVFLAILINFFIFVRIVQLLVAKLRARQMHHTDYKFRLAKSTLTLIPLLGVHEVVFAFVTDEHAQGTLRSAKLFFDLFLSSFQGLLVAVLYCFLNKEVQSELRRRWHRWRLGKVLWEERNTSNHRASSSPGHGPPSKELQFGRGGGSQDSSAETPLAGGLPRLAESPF
Description: (§1) The in vitro functional potency is the measure of target receptor activation in a whole cell assay.
(§2) In vitro functional potency was determined by measuring the response of the target receptor in a reporter gene assay in individual cell lines. […] When the respective receptor is activated, it results in the production of cAMP, which in turn results in expression of the luciferase protein. When assay incubation is completed, luciferase substrate (luciferin) is added resulting in the enzymatic conversion of luciferin to oxyluciferin and producing bioluminescence. The luminescence is measured as the readout for the assay.
(§3) The cells lines used in these assays were BHK cells with BHKTS13 as a parent cell line. The cell lines were derived from a clone containing the CRE luciferase element and were established by further transfection with the respective receptor to obtain the relevant cell line.
(§4) The cells were cultured at 37° C. with 5% CO2 in Cell Culture Medium. They were aliquoted and stored in liquid nitrogen. The cells were kept in continuous culture and were seeded out the day before each assay.
(§5) GLP-1R and GcgR Cell Culture Medium consisted of DMEM medium with 10% FBS, 500 μg/mL G418, and 300 μg/mL hygromycin. GIPR Cell Culture Medium consisted of DMEM medium with 10% FBS, 400 μg/mL G418, and 300 μg/mL hygromycin. Assay Buffer consisted of DMEM w/o phenol red, 10 mM Hepes, 1×Glutamax, 1% ovalbumin, and 0.1% Pluronic F-68 with the addition of HSA at twice the final assay concentration.
(§6) • 1) Cells were plated at 5000 cells/well and incubated overnight in the assay plate. • 2) Cells were washed once in DPBS. • 3) Stocks of the test compounds and reference compounds in concentrations ranging from 100-300 μM were diluted 1:150 in Assay Buffer. Compounds were then diluted 1:10 in column 1 of a 96 deep well dilution plate and then carried across the row creating a 3.5 fold, 12 point dilution curve. • 4) Assay Buffer (50 μl aliquot) with or without HSA was added to each well in the assay plate. • 5) A 50 μl aliquot of compound or blank was transferred from the dilution plate to the assay plate containing the Assay Buffer with or without HSA. • 6) The assay plate was incubated for 3 h in a 5% CO2 incubator at 37° C. 7) The cells were washed once with DPBS. • 8) A 100 μl aliquot of DPBS was added to each well of the assay plate. • 9) A 100 μl aliquot of steadylite plus reagent (light sensitive) was added to each well of the assay plate. • 10) Each assay plate was covered with aluminum foil to protect it from light and shaken at 250 RPM for 30 min at room temperature. • 11) Each assay plate was read in a microtiter plate reader.
(§7) The data from the microtiter plate reader was first regressed in an Excel in order to calculate the x-axis, log scale concentrations based on the individual test compound's stock concentration and the dilutions of the assay. […] The software performs a non-linear regression (log(agonist) vs response). A minimum of two replicates was measured for each sample. The reported values are averages of the replicates.
Experiment [4] addresses T2, mouse GLP-1 receptor (Mus musculus, UniProt O35659).
T2 sequence (O35659 22-463): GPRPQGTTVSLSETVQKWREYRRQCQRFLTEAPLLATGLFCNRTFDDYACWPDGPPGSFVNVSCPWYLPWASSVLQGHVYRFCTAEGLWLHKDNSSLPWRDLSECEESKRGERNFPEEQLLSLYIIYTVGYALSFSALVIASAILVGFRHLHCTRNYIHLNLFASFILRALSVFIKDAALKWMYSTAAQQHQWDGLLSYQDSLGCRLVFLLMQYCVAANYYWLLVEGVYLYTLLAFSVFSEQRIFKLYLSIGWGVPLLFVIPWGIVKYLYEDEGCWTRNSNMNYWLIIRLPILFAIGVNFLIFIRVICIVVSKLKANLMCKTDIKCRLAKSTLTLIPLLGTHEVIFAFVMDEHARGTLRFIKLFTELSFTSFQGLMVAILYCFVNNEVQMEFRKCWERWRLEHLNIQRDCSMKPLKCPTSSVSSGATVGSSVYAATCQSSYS
Description: as §1, §2, §3, §4, §5, §6, §7

Starred links: 1 amine or outer side, 2 acyl side, 3 side chain; linkers in the order of their positions; H or OH if unused. Non-standard residues stand in square brackets, D forms with d. Residues, ends and D or L forms follow the SMILES beside them. Groups on a side chain read outwards from the residue. *: point of attachment. C20 diacid = O=C(O)CCCCCCCCCCCCCCCCCCC(=O)*; γGlu = O=C(O)[C@H](CCC(=O)[*:2])N[*:1]; εLys = N[C@@H](CCCCN[*:1])C(=O)[*:2]; Trx = NC[C@H]1CC[C@H](C(=O)O)CC1; AEEA = NCCOCCOCC(=O)O; Aib = CC(C)(N)C(=O)O

What is called EC50 is the concentration that produces a half-maximal response.

human GLP-1 receptor, sequence (P43220 24-463): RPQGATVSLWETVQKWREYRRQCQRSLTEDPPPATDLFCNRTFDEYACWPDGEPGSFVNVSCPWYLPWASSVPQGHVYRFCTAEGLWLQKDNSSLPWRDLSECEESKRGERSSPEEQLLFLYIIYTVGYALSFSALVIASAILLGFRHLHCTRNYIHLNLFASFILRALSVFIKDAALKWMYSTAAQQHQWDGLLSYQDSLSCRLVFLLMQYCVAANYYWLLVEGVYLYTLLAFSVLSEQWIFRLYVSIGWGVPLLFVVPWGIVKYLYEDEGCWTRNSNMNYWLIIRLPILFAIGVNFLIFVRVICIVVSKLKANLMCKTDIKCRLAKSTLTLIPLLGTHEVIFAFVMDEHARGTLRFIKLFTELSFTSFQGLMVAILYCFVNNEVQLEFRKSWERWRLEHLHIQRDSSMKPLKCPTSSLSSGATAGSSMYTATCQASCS

Consider `CC[C@H](C)[C@H](NC(=O)[C@H](CO)NC(=O)[C@H](Cc1ccc(O)cc1)NC(=O)[C@H](CC(=O)O)NC(=O)[C@H](CO)NC(=O)[C@@H](NC(=O)[C@H](Cc1ccccc1)NC(=O)[C@@H](NC(=O)CNC(=O)[C@H](CCC(=O)O)NC(=O)C(C)(C)NC(=O)[C@@H](N)Cc1ccc(O)cc1)[C@@H](C)O)[C@@H](C)O)C(=O)N[C@@H](Cc1ccc(O)cc1)C(=O)N[C@@H](CC(C)C)C(=O)N[C@@H](CC(=O)O)C(=O)N[C@@H](CCCCN)C(=O)N[C@@H](CCC(N)=O)C(=O)N[C@@H](C)C(=O)N[C@@H](C)C(=O)NC(C)(C)C(=O)N[C@@H](CCCCNC(=O)[C@@H](N)CCCCNC(=O)[C@@H](N)CCCCNC(=O)CC[C@H](NC(=O)CCCCCCCCCCCCCCCCCCC(=O)O)C(=O)O)C(=O)N[C@@H](Cc1ccccc1)C(=O)N[C@H](C(=O)N[C@@H](CC(N)=O)C(=O)N[C@@H](Cc1c[nH]c2ccccc12)C(=O)N[C@@H](CC(C)C)C(=O)N[C@@H](CC(C)C)C(=O)N[C@@H](C)C(=O)NCC(=O)NCC(=O)N1CCC[C@H]1C(=O)N[C@@H](CO)C(=O)N[C@@H](CO)C(=O)NCC(=O)N[C@@H](C)C(=O)N1CCC[C@H]1C(=O)N1CCC[C@H]1C(=O)N1CCC[C@H]1C(=O)N[C@@H](CO)C(N)=O)C(C)C` [Compound 13] (H-Y[Aib]EGTFTSDYSIYLDKQAA[Aib]K([εLys-εLys-γGlu-C20 diacid])FVNWLLAGGPSSGAPPPS-NH2; N-terminus assumed), for which the EC50 is 0.0124 nM in experiment [1] (CRE Luc 0% HSA EC50, 0% HSA); 0.103 nM in experiment [1] (CRE Luc 1% HSA EC50, 1% HSA); 0.057 nM in experiment [2]; > 10 nM in experiment [3]; 0.0054 nM in experiment [4].

`CC[C@H](C)[C@H](NC(=O)[C@H](CO)NC(=O)[C@H](Cc1ccc(O)cc1)NC(=O)[C@H](CC(=O)O)NC(=O)[C@H](CO)NC(=O)[C@@H](NC(=O)[C@H](Cc1ccccc1)NC(=O)[C@@H](NC(=O)CNC(=O)[C@H](CCC(=O)O)NC(=O)C(C)(C)NC(=O)[C@@H](N)Cc1ccc(O)cc1)[C@@H](C)O)[C@@H](C)O)C(=O)N[C@@H](Cc1ccc(O)cc1)C(=O)N[C@@H](CC(C)C)C(=O)N[C@@H](CC(=O)O)C(=O)N[C@@H](CCCCN)C(=O)N[C@@H](CCC(N)=O)C(=O)N[C@@H](C)C(=O)N[C@@H](C)C(=O)NC(C)(C)C(=O)N[C@@H](CCCCNC(=O)[C@@H](N)CCCCNC(=O)[C@@H](N)CCCCNC(=O)CC[C@H](NC(=O)[C@H]1CC[C@H](CNC(=O)CCCCCCCCCCCCCCCCCCC(=O)O)CC1)C(=O)O)C(=O)N[C@@H](Cc1ccccc1)C(=O)N[C@H](C(=O)N[C@@H](CC(N)=O)C(=O)N[C@@H](Cc1c[nH]c2ccccc12)C(=O)N[C@@H](CC(C)C)C(=O)N[C@@H](CC(C)C)C(=O)N[C@@H](C)C(=O)NCC(=O)NCC(=O)N1CCC[C@H]1C(=O)N[C@@H](CO)C(=O)N[C@@H](CO)C(=O)NCC(=O)N[C@@H](C)C(=O)N1CCC[C@H]1C(=O)N1CCC[C@H]1C(=O)N1CCC[C@H]1C(=O)N[C@@H](CO)C(N)=O)C(C)C` [Compound 14] (H-Y[Aib]EGTFTSDYSIYLDKQAA[Aib]K([εLys-εLys-γGlu-Trx-C20 diacid])FVNWLLAGGPSSGAPPPS-NH2; N-terminus assumed): the EC50 was 0.0114 nM in experiment [1] (CRE Luc 0% HSA EC50, 0% HSA); 0.377 nM in experiment [1] (CRE Luc 1% HSA EC50, 1% HSA); 0.0186 nM in experiment [2]; > 10 nM in experiment [3]; 0.006 nM in experiment [4].

Turning to `CC[C@H](C)[C@H](NC(=O)[C@H](CO)NC(=O)[C@H](Cc1ccc(O)cc1)NC(=O)[C@H](CC(=O)O)NC(=O)[C@H](CO)NC(=O)[C@@H](NC(=O)[C@H](Cc1ccccc1)NC(=O)[C@@H](NC(=O)CNC(=O)[C@H](CCC(=O)O)NC(=O)C(C)(C)NC(=O)[C@@H](N)Cc1ccc(O)cc1)[C@@H](C)O)[C@@H](C)O)C(=O)N[C@@H](Cc1ccc(O)cc1)C(=O)N[C@@H](CC(C)C)C(=O)N[C@@H](CCC(=O)O)C(=O)N[C@@H](CCCCN)C(=O)N[C@@H](CCC(N)=O)C(=O)N[C@@H](C)C(=O)N[C@@H](C)C(=O)NC(C)(C)C(=O)N[C@@H](CCCCNC(=O)[C@@H](N)CCCCNC(=O)[C@@H](N)CCCCNC(=O)CC[C@H](NC(=O)[C@H]1CC[C@H](CNC(=O)CCCCCCCCCCCCCCCCCCC(=O)O)CC1)C(=O)O)C(=O)N[C@@H](Cc1ccccc1)C(=O)N[C@H](C(=O)N[C@@H](CC(N)=O)C(=O)N[C@@H](Cc1c[nH]c2ccccc12)C(=O)N[C@@H](CC(C)C)C(=O)N[C@@H](CC(C)C)C(=O)N[C@@H](C)C(=O)NCC(=O)NCC(=O)N1CCC[C@H]1C(=O)N[C@@H](CO)C(=O)N[C@@H](CO)C(=O)NCC(=O)N[C@@H](C)C(=O)N1CCC[C@H]1C(=O)N1CCC[C@H]1C(=O)N1CCC[C@H]1C(=O)N[C@@H](CO)C(N)=O)C(C)C` [Compound 16] (H-Y[Aib]EGTFTSDYSIYLEKQAA[Aib]K([εLys-εLys-γGlu-Trx-C20 diacid])FVNWLLAGGPSSGAPPPS-NH2; N-terminus assumed), the EC50 is 0.0061 nM in experiment [1] (CRE Luc 0% HSA EC50, 0% HSA); 0.202 nM in experiment [1] (CRE Luc 1% HSA EC50, 1% HSA); 0.0169 nM in experiment [2]; > 10 nM in experiment [3]; 0.0035 nM in experiment [4].

Take `CC[C@H](C)[C@H](NC(=O)[C@H](CO)NC(=O)[C@H](Cc1ccc(O)cc1)NC(=O)[C@H](CC(=O)O)NC(=O)[C@H](CO)NC(=O)[C@@H](NC(=O)[C@H](Cc1ccccc1)NC(=O)[C@@H](NC(=O)CNC(=O)[C@H](CCC(=O)O)NC(=O)C(C)(C)NC(=O)[C@@H](N)Cc1ccc(O)cc1)[C@@H](C)O)[C@@H](C)O)C(=O)N[C@@H](Cc1ccc(O)cc1)C(=O)N[C@@H](CC(C)C)C(=O)N[C@@H](CCC(=O)O)C(=O)N[C@@H](CCCCN)C(=O)N[C@@H](CCC(N)=O)C(=O)N[C@@H](C)C(=O)N[C@@H](C)C(=O)NC(C)(C)C(=O)N[C@@H](CCCCNC(=O)COCCOCCNC(=O)COCCOCCNC(=O)CC[C@H](NC(=O)[C@H]1CC[C@H](CNC(=O)CCCCCCCCCCCCCCCCCCC(=O)O)CC1)C(=O)O)C(=O)N[C@@H](Cc1ccccc1)C(=O)N[C@H](C(=O)N[C@@H](CC(N)=O)C(=O)N[C@@H](Cc1c[nH]c2ccccc12)C(=O)N[C@@H](CC(C)C)C(=O)N[C@@H](CC(C)C)C(=O)N[C@@H](C)C(=O)NCC(=O)NCC(=O)N1CCC[C@H]1C(=O)N[C@@H](CO)C(=O)N[C@@H](CO)C(=O)NCC(=O)N[C@@H](C)C(=O)N1CCC[C@H]1C(=O)N1CCC[C@H]1C(=O)N1CCC[C@H]1C(=O)N[C@@H](CO)C(N)=O)C(C)C` [Compound 17] (H-Y[Aib]EGTFTSDYSIYLEKQAA[Aib]K([AEEA-AEEA-γGlu-Trx-C20 diacid])FVNWLLAGGPSSGAPPPS-NH2; N-terminus assumed): the EC50 is 0.0041 nM in experiment [1] (CRE Luc 0% HSA EC50, 0% HSA); 0.229 nM in experiment [1] (CRE Luc 1% HSA EC50, 1% HSA); 0.0219 nM in experiment [2]; > 10 nM in experiment [3]; 0.0023 nM in experiment [4].

As to `CC[C@H](C)[C@H](NC(=O)[C@H](CO)NC(=O)[C@H](Cc1ccc(O)cc1)NC(=O)[C@H](CC(=O)O)NC(=O)[C@H](CO)NC(=O)[C@@H](NC(=O)[C@H](Cc1ccccc1)NC(=O)[C@@H](NC(=O)CNC(=O)[C@H](CCC(=O)O)NC(=O)C(C)(C)NC(=O)[C@@H](N)Cc1ccc(O)cc1)[C@@H](C)O)[C@@H](C)O)C(=O)N[C@@H](Cc1ccc(O)cc1)C(=O)N[C@@H](CC(C)C)C(=O)N[C@@H](CCC(=O)O)C(=O)N[C@@H](CCCCN)C(=O)N[C@@H](CCCCNC(=O)[C@@H](N)CCCCNC(=O)[C@@H](N)CCCCNC(=O)CC[C@H](NC(=O)[C@H]1CC[C@H](CNC(=O)CCCCCCCCCCCCCCCCCCC(=O)O)CC1)C(=O)O)C(=O)N[C@@H](C)C(=O)N[C@@H](C)C(=O)NC(C)(C)C(=O)N[C@@H](CCC(=O)O)C(=O)N[C@@H](Cc1ccccc1)C(=O)N[C@H](C(=O)N[C@@H](CCC(N)=O)C(=O)N[C@@H](Cc1c[nH]c2ccccc12)C(=O)N[C@@H](CC(C)C)C(=O)N[C@@H](CC(C)C)C(=O)N[C@@H](CCC(=O)O)C(=O)NCC(=O)NCC(=O)N1CCC[C@H]1C(=O)N[C@@H](CO)C(=O)N[C@@H](CO)C(=O)NCC(=O)N[C@@H](C)C(=O)N1CCC[C@H]1C(=O)N1CCC[C@H]1C(=O)N1CCC[C@H]1C(=O)N[C@@H](CO)C(N)=O)C(C)C` [Compound 34] (H-Y[Aib]EGTFTSDYSIYLEKK([εLys-εLys-γGlu-Trx-C20 diacid])AA[Aib]EFVQWLLEGGPSSGAPPPS-NH2; N-terminus assumed), the EC50 in experiment [1] (CRE Luc 0% HSA EC50, 0% HSA) worked out at 0.0032 nM; in experiment [1] (CRE Luc 1% HSA EC50, 1% HSA), 0.379 nM; in experiment [2], 0.0195 nM; in experiment [4], 0.0018 nM.

(Values after US20230346961A1, “GLP-1 AND GIP RECEPTOR CO-AGONISTS” (Novo Nordisk A/S, priority 2020, published 2023).)
